# In patent publication US20050182084A1, “Method for treating erectile dysfunction” (FUJISAWA PHARMACEUTICAL CO., LTD., priority 2004, published 2005):
# System: rat cavernous nerve injury model
# Test: recovery of erectile function in rat cavernous nerve injury model (intracavernous pressure)
# Type: in vivo
# Method: Effect of the compound (Ia) on erectile dysfunction was confirmed by a rat cavernous nerve injury model.
# • (1) The recovery of erectile function after cavernous nerve injury was basically assessed in a similar manner to that of BJU International 92, 470-475 (2003). • (2) The compound (Ia), in a form of the solution which was prepared in a similar manner to that of Example 1 mentioned above, or its placebo was given to rats, from 1 day after surgery to 1 day before harvesting for 8 weeks, subcutaneously after being diluted with a suitable amount of HCO-60/EtOH in physiological saline.
smiles,measurement,setting,value
CO[C@H]1C[C@@H](C)C/C(C)=C/[C@@H](CC(C)=O)C(=O)C[C@H](O)[C@@H](C)[C@@H](/C(C)=C/[C@@H]2CC[C@@H](O)[C@H](OC)C2)OC(=O)[C@@H]2CCCCN2C(=O)C(=O)[C@]2(O)O[C@H]1[C@@H](OC)C[C@H]2C [Compound (Ia)],effect on intracavernous pressure (in words),"rat cavernous nerve injury model, conclusion from Table 1",remarkable recovery effect on intracavernous pressure
same,Peak intracavernous pressure(cm H2O) mean ± S.E.,"rat, cavernous nerve injury, 1 mg/kg subcutaneously, from 1 day after surgery for 8 weeks, n = 7, **P < 0.01 v.s. vehicle-treated (Dunnett's post-test)",97.4 ± 8.0** cm H2O
